Measurements taken from publication PMC4490784, “Compensatory induction of MYC expression by sustained CDK9 inhibition via a BRD4-dependent mechanism” (eLife, 2015).
pIC50: −log10 of the molar value.

What was measured:
Assay in all cases: biochemical binding or enzymatic assay
ALK = target: T1, ALK (Homo sapiens, UniProt Q9UM73); settings: Novartis
T1 construct: purchased DiscoveRx KINOMEscan
Experimental: (§1) Finally, the selectivity profile of i-CDK9 toward other non-CDK kinases was also assessed using the KINOMEscan platform. […] Except for CLK4, for which no suitable assay was available, the rest of the kinases plus a selected group of others were re-examined for the concentration-dependent effect of i-CDK9 in either functional kinase assays or binding assays. […] Indeed, it has recently been reported that DYRK1A acts as a Pol II CTD Kinase at its target gene promoters ([Di Vona et al., 2015]).

AURKA = target: T2, AURKA (Homo sapiens, UniProt O14965); settings: Novartis
T2 construct: purchased DiscoveRx KINOMEscan
T2 sequence (O14965 1-403): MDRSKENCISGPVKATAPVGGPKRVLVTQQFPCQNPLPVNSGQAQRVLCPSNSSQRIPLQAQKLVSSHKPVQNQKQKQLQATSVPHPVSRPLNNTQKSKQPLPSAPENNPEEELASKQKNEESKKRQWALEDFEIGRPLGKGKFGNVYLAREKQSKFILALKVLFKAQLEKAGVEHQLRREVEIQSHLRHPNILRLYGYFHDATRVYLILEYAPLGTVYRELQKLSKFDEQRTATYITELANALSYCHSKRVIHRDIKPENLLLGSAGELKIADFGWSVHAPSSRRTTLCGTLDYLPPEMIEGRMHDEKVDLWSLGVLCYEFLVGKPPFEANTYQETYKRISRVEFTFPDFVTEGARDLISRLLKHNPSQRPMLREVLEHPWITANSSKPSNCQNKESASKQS
Experimental: as §1

AXL = target: T3, AXL (Homo sapiens, UniProt P30530); settings: Novartis
T3 construct: purchased DiscoveRx KINOMEscan
T3 sequence (P30530 26-894): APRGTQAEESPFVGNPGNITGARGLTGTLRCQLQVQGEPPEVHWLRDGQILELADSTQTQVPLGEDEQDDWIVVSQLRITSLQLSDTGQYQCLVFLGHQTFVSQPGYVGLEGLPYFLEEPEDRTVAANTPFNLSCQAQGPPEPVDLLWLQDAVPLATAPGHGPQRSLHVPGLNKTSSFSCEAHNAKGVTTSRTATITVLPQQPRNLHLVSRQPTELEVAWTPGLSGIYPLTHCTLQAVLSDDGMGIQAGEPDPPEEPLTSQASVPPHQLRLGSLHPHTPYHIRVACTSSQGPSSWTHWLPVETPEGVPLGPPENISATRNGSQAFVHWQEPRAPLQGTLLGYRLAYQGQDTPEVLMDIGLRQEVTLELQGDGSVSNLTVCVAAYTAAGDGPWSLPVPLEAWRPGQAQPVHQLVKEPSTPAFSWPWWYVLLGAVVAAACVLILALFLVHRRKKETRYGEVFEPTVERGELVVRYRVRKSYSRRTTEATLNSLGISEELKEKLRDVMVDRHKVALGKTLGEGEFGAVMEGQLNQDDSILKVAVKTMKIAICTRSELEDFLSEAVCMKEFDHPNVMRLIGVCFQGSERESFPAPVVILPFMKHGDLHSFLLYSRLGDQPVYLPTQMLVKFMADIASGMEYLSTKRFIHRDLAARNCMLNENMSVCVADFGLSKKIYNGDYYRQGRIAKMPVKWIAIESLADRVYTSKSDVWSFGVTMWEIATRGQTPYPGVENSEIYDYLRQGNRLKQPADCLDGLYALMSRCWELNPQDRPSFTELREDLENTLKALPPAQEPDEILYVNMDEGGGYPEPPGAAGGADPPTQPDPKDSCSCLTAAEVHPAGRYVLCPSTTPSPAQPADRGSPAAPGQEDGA
Experimental: as §1

CSNK1G3 = target: T4, CSNK1G3 (Homo sapiens, UniProt Q9Y6M4); settings: Novartis
T4 construct: purchased DiscoveRx KINOMEscan
Experimental: as §1

DYRK2 = target: T5, DYRK2 (Homo sapiens, UniProt Q92630); settings: Millipore
T5 construct: purchased DiscoveRx KINOMEscan
T5 sequence (Q92630 1-601): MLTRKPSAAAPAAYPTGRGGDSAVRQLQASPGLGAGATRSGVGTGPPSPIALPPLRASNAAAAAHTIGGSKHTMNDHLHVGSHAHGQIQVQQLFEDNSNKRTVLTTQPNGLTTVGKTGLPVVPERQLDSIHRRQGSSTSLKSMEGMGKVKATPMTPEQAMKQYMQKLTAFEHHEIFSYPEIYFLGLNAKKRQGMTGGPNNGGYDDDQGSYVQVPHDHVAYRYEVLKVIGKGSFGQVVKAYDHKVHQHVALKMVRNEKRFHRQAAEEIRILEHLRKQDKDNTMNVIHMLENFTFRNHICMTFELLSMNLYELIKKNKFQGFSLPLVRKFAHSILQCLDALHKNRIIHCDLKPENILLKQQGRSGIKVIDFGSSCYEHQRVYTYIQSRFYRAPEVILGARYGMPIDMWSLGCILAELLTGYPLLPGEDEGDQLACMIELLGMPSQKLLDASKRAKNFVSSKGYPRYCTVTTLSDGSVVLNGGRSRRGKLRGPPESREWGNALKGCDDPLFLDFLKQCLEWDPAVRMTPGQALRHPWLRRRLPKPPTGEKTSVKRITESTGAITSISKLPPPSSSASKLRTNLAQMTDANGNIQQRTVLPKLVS
Experimental: as §1

EGFR = target: T6, EGFR (Homo sapiens, UniProt P00533); settings: Novartis
T6 construct: purchased DiscoveRx KINOMEscan
Experimental: as §1

FGFR2 = target: T7, FGFR2 (Homo sapiens, UniProt P21802); settings: Novartis
T7 construct: purchased DiscoveRx KINOMEscan
Experimental: as §1

FGFR3 = target: T8, FGFR3 (Homo sapiens, UniProt P22607); settings: Novartis
T8 construct: purchased DiscoveRx KINOMEscan
Experimental: as §1

GSK3B = target: T9, GSK3B (Homo sapiens, UniProt P49841); settings: Novartis
T9 construct: purchased DiscoveRx KINOMEscan
T9 sequence (P49841 whole entry): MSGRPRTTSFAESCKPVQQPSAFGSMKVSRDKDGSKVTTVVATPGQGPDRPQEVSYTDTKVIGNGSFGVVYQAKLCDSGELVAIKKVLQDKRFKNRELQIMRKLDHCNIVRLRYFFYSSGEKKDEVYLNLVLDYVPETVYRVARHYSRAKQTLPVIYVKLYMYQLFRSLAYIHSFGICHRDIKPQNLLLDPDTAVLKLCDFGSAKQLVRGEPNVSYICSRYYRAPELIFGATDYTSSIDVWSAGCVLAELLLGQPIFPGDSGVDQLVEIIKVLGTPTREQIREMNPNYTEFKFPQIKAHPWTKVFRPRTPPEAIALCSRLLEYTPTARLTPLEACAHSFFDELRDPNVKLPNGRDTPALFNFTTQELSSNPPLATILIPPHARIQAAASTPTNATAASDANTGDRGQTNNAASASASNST
Experimental: as §1

IGF1R = target: T10, IGF1R (Homo sapiens, UniProt P08069); settings: Novartis
T10 construct: purchased DiscoveRx KINOMEscan
T10 sequence (P08069 31-1367): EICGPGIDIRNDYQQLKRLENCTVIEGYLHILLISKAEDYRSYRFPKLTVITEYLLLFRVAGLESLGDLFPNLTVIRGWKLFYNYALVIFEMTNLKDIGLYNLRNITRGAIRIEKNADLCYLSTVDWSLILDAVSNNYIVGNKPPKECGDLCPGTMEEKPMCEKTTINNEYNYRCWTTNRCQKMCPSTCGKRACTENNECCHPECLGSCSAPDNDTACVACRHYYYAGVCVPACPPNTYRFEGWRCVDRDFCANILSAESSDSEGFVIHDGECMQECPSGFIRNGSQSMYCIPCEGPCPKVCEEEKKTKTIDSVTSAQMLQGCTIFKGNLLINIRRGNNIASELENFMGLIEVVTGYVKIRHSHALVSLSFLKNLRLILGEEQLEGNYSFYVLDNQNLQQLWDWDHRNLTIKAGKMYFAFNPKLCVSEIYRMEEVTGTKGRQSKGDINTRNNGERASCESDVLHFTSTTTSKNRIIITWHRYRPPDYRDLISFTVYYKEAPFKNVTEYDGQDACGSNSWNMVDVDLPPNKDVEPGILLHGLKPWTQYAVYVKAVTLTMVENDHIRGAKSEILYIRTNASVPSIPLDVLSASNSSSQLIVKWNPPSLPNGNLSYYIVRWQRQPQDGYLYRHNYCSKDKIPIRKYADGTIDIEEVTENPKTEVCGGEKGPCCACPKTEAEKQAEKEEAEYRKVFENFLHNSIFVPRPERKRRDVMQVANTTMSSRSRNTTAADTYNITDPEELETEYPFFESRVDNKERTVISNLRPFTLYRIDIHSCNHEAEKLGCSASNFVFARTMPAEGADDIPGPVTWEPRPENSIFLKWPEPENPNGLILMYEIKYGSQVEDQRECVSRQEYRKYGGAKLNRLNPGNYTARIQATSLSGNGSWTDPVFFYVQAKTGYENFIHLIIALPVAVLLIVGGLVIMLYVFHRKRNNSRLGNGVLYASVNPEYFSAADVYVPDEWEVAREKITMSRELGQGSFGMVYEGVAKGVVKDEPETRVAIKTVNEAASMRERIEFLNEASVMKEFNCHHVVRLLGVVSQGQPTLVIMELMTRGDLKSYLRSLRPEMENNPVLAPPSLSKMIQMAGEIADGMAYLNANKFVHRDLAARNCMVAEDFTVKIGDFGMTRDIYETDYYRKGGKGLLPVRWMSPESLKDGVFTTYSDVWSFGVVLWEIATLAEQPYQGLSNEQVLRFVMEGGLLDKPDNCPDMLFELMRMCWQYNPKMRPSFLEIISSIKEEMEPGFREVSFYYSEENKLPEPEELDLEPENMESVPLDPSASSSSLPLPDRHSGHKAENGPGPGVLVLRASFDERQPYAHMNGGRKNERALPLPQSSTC
Experimental: as §1

IRAK4 = IRAK4 (Homo sapiens, UniProt Q9NWZ3); settings: Novartis
IRAK4, sequence (Q9NWZ3 whole entry): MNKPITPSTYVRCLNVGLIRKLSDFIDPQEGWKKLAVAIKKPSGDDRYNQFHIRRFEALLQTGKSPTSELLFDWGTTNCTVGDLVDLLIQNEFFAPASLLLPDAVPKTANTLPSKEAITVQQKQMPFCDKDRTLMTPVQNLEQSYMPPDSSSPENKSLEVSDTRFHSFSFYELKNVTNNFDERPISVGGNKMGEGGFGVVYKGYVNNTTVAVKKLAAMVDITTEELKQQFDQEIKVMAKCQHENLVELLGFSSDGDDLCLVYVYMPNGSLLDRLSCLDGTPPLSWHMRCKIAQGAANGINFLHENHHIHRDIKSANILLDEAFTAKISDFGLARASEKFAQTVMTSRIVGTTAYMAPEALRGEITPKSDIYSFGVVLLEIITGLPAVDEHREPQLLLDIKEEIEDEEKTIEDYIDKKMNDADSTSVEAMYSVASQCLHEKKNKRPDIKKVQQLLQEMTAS
Experimental: as §1

KIT = target: T11, KIT (Homo sapiens, UniProt P10721); settings: Novartis
T11 construct: purchased DiscoveRx KINOMEscan
T11 sequence (P10721 26-976): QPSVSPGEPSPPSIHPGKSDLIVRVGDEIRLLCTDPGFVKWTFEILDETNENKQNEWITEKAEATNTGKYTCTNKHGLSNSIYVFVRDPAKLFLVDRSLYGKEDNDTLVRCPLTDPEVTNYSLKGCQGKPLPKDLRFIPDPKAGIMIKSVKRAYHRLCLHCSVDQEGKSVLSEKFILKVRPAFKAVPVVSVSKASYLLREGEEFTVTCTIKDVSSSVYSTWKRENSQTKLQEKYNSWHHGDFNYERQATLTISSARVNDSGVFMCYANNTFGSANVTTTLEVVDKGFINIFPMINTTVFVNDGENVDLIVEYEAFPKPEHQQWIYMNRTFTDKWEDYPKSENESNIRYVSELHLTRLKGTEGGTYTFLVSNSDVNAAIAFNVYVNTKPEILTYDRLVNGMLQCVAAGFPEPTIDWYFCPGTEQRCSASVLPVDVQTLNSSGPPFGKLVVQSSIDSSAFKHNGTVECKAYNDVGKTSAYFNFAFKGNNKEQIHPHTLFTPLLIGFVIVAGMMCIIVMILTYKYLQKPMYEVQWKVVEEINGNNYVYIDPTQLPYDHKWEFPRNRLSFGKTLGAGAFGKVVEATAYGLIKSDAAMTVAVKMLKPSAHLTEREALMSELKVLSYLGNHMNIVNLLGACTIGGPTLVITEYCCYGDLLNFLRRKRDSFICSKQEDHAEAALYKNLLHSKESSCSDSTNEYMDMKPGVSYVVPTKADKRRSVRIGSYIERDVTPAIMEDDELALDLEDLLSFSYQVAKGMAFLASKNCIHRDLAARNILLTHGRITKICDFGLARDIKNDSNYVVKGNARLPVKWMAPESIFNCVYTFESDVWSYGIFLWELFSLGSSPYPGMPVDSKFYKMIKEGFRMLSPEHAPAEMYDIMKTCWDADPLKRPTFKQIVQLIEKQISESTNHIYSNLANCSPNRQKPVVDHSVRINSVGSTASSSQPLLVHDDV
Experimental: as §1

LCK = target: T12, LCK (Homo sapiens, UniProt P06239); settings: Novartis
T12 construct: purchased DiscoveRx KINOMEscan
Experimental: as §1

MAPKAPK5 = target: T13, MAPKAPK5 (Homo sapiens, UniProt Q8IW41); settings: Novartis
T13 construct: purchased DiscoveRx KINOMEscan
T13 sequence (Q8IW41 1-473): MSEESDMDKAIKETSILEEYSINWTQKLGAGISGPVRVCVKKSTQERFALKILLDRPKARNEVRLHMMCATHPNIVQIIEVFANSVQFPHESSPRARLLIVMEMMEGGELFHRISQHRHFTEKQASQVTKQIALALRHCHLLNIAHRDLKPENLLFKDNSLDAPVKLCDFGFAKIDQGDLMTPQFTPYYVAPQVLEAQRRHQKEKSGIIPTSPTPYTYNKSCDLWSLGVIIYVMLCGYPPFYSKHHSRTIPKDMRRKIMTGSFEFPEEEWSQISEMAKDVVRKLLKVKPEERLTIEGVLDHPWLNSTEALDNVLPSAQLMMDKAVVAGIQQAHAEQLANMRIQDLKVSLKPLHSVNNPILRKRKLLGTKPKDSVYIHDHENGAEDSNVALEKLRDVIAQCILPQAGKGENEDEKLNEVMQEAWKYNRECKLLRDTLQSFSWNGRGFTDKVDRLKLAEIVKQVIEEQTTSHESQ
Experimental: as §1

MET = target: T14, MET (Homo sapiens, UniProt P08581); settings: Novartis
T14 construct: purchased DiscoveRx KINOMEscan
Experimental: as §1

MKNK2 = target: T15, MKNK2 (Homo sapiens, UniProt Q9HBH9); settings: Novartis
T15 construct: purchased DiscoveRx KINOMEscan
Experimental: as §1

PCTK1 = target: T16, PCTK1 (Homo sapiens, UniProt Q00536); settings: Ambit
T16 construct: purchased DiscoveRx KINOMEscan
T16 sequence (Q00536 whole entry): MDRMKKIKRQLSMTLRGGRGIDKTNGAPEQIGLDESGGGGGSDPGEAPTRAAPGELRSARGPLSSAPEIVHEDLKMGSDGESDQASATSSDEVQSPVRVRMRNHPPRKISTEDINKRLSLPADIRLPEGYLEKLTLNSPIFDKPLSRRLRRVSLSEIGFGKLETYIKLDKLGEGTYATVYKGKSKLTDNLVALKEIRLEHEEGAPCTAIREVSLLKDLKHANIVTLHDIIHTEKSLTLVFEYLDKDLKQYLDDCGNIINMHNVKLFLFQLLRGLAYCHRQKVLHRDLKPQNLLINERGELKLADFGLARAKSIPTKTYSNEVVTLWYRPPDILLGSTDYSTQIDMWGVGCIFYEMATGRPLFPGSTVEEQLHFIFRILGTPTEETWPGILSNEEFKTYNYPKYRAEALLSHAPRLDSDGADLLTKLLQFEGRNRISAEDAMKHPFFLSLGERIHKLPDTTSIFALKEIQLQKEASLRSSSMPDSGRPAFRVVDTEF
Experimental: as §1

PCTK2 = target: T17, PCTK2 (Homo sapiens, UniProt Q00537); settings: Ambit
T17 construct: purchased DiscoveRx KINOMEscan
Experimental: as §1

PIM2 = target: T18, PIM2 (Homo sapiens, UniProt Q9P1W9); settings: Novartis
T18 construct: purchased DiscoveRx KINOMEscan
T18 sequence (Q9P1W9 whole entry): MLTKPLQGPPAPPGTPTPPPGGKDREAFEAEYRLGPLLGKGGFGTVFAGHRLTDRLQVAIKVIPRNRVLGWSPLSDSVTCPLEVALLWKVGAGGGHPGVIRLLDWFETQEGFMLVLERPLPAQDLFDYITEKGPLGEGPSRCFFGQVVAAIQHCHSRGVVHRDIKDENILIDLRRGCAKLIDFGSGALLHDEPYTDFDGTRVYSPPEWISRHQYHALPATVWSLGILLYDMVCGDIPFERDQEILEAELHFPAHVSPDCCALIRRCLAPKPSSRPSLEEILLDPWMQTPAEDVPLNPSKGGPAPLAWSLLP
Experimental: as §1

PKN1 = target: T19, PKN1 (Homo sapiens, UniProt Q16512); settings: Novartis
T19 construct: purchased DiscoveRx KINOMEscan
Experimental: as §1

PKN2 = target: T20, PKN2 (Homo sapiens, UniProt Q16513); settings: Novartis
T20 construct: purchased DiscoveRx KINOMEscan
Experimental: as §1

RET = target: T21, RET (Homo sapiens, UniProt P07949); settings: Novartis
T21 construct: purchased DiscoveRx KINOMEscan
Experimental: as §1

Question: With `N[C@H]1CC[C@H](Nc2cc(-c3cccc(NCc4cccc(F)c4)n3)c(Cl)cn2)CC1` [i-CDK9, N2′-(trans-4-aminocyclohexyl)-5′-chloro-N6-(3-fluorobenzyl)-2,4′-bipyridine-2′,6-diamine] as the compound, how does the pIC50 (ALK) read?
Answer: The pIC50 was less than 5.00.

Question: And the pIC50 (AURKA)?
Answer: The pIC50 was less than 5.00.

Question: What about the pIC50 (AXL) of the same compound?
Answer: Its pIC50 is less than 5.00.

Question: What about the pIC50 (CSNK1G3) of the same compound?
Answer: Its pIC50 is less than 5.00.

Question: And the pIC50 (DYRK2)?
Answer: The pIC50 was 5.97.

Question: What about the pIC50 (EGFR) of the same compound?
Answer: The pIC50 was less than 5.00.

Question: And the pIC50 (FGFR2)?
Answer: The pIC50 was less than 5.00.

Question: What about the pIC50 (FGFR3) of the same compound?
Answer: Its pIC50 is less than 5.00.

Question: And the pIC50 (GSK3B)?
Answer: The pIC50 was 5.80.

Question: What about the pIC50 (IGF1R) of the same compound?
Answer: The pIC50 was less than 5.00.

Question: What about the pIC50 (IRAK4) of the same compound?
Answer: Its pIC50 is less than 5.00.

Question: And the pIC50 (KIT)?
Answer: Its pIC50 is less than 5.00.

Question: What about the pIC50 (LCK) of the same compound?
Answer: The pIC50 was less than 5.00.

Question: And the pIC50 (MAPKAPK5)?
Answer: The pIC50 was less than 5.00.

Question: And the pIC50 (MET)?
Answer: The pIC50 was less than 5.00.

Question: What about the pIC50 (MKNK2) of the same compound?
Answer: The pIC50 was less than 5.00.

Question: What about the pIC50 (PCTK1) of the same compound?
Answer: Its pIC50 is less than 6.85.

Question: What about the pIC50 (PCTK2) of the same compound?
Answer: Its pIC50 is less than 7.10.

Question: And the pIC50 (PIM2)?
Answer: Its pIC50 is less than 5.00.

Question: What about the pIC50 (PKN1) of the same compound?
Answer: The pIC50 was less than 5.00.

Question: What about the pIC50 (PKN2) of the same compound?
Answer: Its pIC50 is less than 5.00.

Question: What about the pIC50 (RET) of the same compound?
Answer: The pIC50 was less than 5.00.
